Test results published in patent US9907857B2, “Peptide having cell membrane penetrating activity” (EWHA UNIVERSITY-INDUSTRY COLLABORATION FOUNDATION, priority 2006, dated 2018).
Where “and” joins values, the source holds several entries; their conditions need not be identical. Equal entries are not always repeated. Entries after “also recorded” stand apart in the source; their conditions may differ.

How the values were obtained:
HeLa cells [1] = test: Cell penetrating activity of FITC-labelled mutant peptides, mean fluorescence intensity by FACS; type: cell-based; details: for mean fluorescence intensity (MFI) relative to WT, MFI of WT at 10 μM set to 1: peptide at 10 μM; for mean fluorescence intensity (MFI) relative to WT, MFI of WT at 10 μM set to 1 / mean fluorescence intensity (MFI) relative to WT / translocation efficiency compared with another peptide variant (comparator named in the value): 2 hours, FACS; for mean fluorescence intensity (MFI) relative to WT: peptide at 100 μM; for penetrating activity compared with TAT: 100 μM
Description: N-terminus of each peptide was labeled with fluorescence dye, FITC and C-terminus was protected. Peptide purity (>95%) was determined by HPLC. Synthesis of the peptides of the present invention was requested to PEPTRON, Inc.
HeLa cell line was propagated in DMEM supplemented with 10% FBS and 100 units/mL penicillin-streptomycin. Cells were grown in a 5% CO2 incubator at 37° C.
HeLa cells were cultured in 6-well plate until they were 70˜80% grown up before a day of the experiment. The cells were washed with DMEM of 37° C. twice, and TCTP-derived peptides synthesized in Example 5-1) were treated to the culture medium in a dose dependent manner (0, 1, 10, 100 μM), then the cells was incubated for 2 hours in an CO2 incubator at 37° C.,
After the incubation, the cells were washed in cool PBS two times and treated with 1 mg/ml trypsin for 15 min at 37° C. to digest peptides attached on cell membrane and washed in PBS twice again. Then, the cells were analyzed by FACS at emission 510 nm and excitation 530 nm for a measurement of FITC of intracellular uptake marker (FIGS. 7, 8 and 9). Intracellular translocation efficiency of mutant peptides, TCTP-CPP#1-35(SEQ ID Nos.: 20-54) was compared to wild type(WT), TCTP(1-10)(SEQ ID No.: 1) and control peptide, TAT(48-57).

HeLa cells [2] = test: Cell penetrating efficiency of rhodamine-labelled TCTP-derived peptides, microplate fluorescence reader; type: cell-based; details: for intracellular translocation, dependence on concentration: 0-100 μM, 15 minutes or 2 hours; for efficiency versus control peptide TAT at low concentration: 1 μM and 10 μM; for cell penetrating activity / translocation efficiency in comparison with TAT (words): HeLa, rhodamine-labelled peptides, overall
Description: N-terminus of each peptides was labeled with fluorescence dye, rhodamine and C-terminus was protected. Peptide purity (>95%) was determined by HPLC. Synthesis of the peptides was requested to PEPTRON, Inc.
HeLa cell line (ATCC) was propagated in DMEM (GIBCO) supplemented with 10% FBS (GIBCO) and 100 units/mL penicillin-streptomycin. Cells were grown in a 5% CO2 incubator at 37° C.
HeLa cells were cultured in 48-well plate until they were 70˜80% grown up before a day of the experiment. The cells were washed with DMEM of 37° C. twice, and TCTP-derived peptides synthesized in Example 2-1) were treated to the culture medium in a dose dependent manner (0, 1, 5, 10, 50, 100 μM), then the cells was incubated for 15 minutes or 2 hours in an CO2 incubator at 37° C.
After the incubation, the cells were washed in cool PBS three times and immediately measured by a microplate fluorescence reader (BIO-TEK instruments, Inc., Vermont, USA) at emission 530 nm and excitation 590 nm for a measurement of rhodamine of intracellular uptake marker. The sensitivity of reader was set at 100 as a basic mode, but was lowered to 75 if the fluorescent signals were too strong. All experiments were conducted in triplet repeats for reproducibility (FIG. 2 and FIG. 3).

Sequence | mean fluorescence intensity (MFI) relative to WT, MFI of WT at 10 μM set to 1 (HeLa cells [1]) | translocation efficiency compared with another peptide variant (comparator named in the value) (HeLa cells [1]) | further results
CIISRDLISH (mutant peptide based on human sequence; (1)..(10) TCTP-CPP#6) [SEQ ID No.: 25] | 0.91 times |  | mean fluorescence intensity (MFI) relative to WT (HeLa cells [1]): 1.81 times
FIIFRIAASHKK (mutant peptide based on human sequence; (1)..(12) TCTP-CPP#15) [SEQ ID No.: 34] |  | increased result of translocation efficiency at the concentration of 10 μM and a decreased result at 100 μM, compared to SEQ ID No.: 31 | 
IIYRDLISH ((1)..(9) 2-10 amino acid residue of TCTP; listed as Homo sapiens) [SEQ ID No.: 4, Residues of TCTP(2-10)] |  |  | intracellular translocation, dependence on concentration (HeLa cells [2]): not translocated at a concentration of 1 μM to 10 μM; efficiency versus control peptide TAT at low concentration (HeLa cells [2]): lower efficiency than control peptide, TAT; translocation (HeLa cells [2]; 100 μM, 15 minutes treatment): more efficiently translocated at 100 μM after 15 minutes treatment; cell penetrating activity / translocation efficiency in comparison with TAT (words) (HeLa cells [2]): excellent cell penetrating activity in comparison with conventional TAT; cell penetrating activity / translocation efficiency in comparison with TAT (words) (HeLa cells [2]; listed as TCTP (2-10)): superior ability than well-known PTD, TAT in their translocation efficiency; cell penetrating activity / translocation efficiency in comparison with TAT (words) (HeLa cells [2]; listed as TCTP(2-10)): more excellent penetrating activity than well-known TAT(47-58) peptide; translocation versus control peptide TAT(48-57) (HeLa cells [2]; after 2 hours, 100 μM): more efficiently translocated at 100 μM than control peptide
LIIFAIAASHKK (mutant peptide based on human sequence; (1)..(12) TCTP-CPP#34) [SEQ ID No.: 53] | 8.24 times |  | 
LIIFRIAASHKK (mutant peptide based on human sequence; (1)..(12) TCTP-CPP#16) [SEQ ID No.: 35] | 29.53 times | increased result of translocation efficiency at the concentration of 10 μM and a decreased result at 100 μM, compared to SEQ ID No.: 31 | 
LIIFRILISHHH (mutant peptide based on human sequence; (1)..(12) TCTP-CPP#30) [SEQ ID No.: 49] |  |  | cell penetrating activity compared with TAT (HeLa cells [1]; concentration not given): excellent activity compared with TAT
LIIFRILISHKK (mutant peptide based on human sequence; (1)..(12) TCTP-CPP#27) [SEQ ID No.: 46] | 3.75 times | substitution for leucine caused the decreased penetrating activity | 
MIIFAIAASHKK (mutant peptide based on human sequence; (1)..(12) TCTP-CPP#26) [SEQ ID No.: 45] | 11.47 times |  | 
MIIFKIAASHKK (mutant peptide based on human sequence; (1)..(12) TCTP-CPP#24) [SEQ ID No.: 43] | 12.1 times |  | 
MIIFRAAASHKK (mutant peptide based on human sequence; (1)..(12) TCTP-CPP#14) [SEQ ID No.: 33] | 3.2 times | similarly increased at 100 μM | 
MIIFRDLISH (mutant peptide based on human sequence; (1)..(10) TCTP-CPP#3) [SEQ ID No.: 22] | 19.63 times |  | penetrating activity compared with TAT (HeLa cells [1]): better penetrating activity than TAT(100 μM); mean fluorescence intensity (MFI) relative to WT (HeLa cells [1]): 216.75 times
MIIFRIAASHKK (mutant peptide based on human sequence; (1)..(12) TCTP-CPP#12) [SEQ ID No.: 31] | 29 times and 26.77 times | similarly increased at 100 μM | 
MIIFRIAAYHKK (mutant peptide based on human sequence; (1)..(12) TCTP-CPP#20) [SEQ ID No.: 39] | 25.0 times | lower than SEQ ID No.: 34 at the concentration of 100 μM | 
MIIFRILISHKK (mutant peptide based on human sequence; (1)..(12) TCTP-CPP#28) [SEQ ID No.: 47] | 7.04 times |  | 
MIIYRAEISH (mutant peptide based on human sequence; (1)..(10) TCTP-CPP#10) [SEQ ID No.: 29] |  |  | cell penetrating activity compared with WT SEQ ID No.: 1 (HeLa cells [1]; concentration not given): decreased to same degree with alanine substituent
MIIYRALISHKK (mutant peptide based on human sequence; (1)..(12) TCTP-CPP#7) [SEQ ID No.: 26] | 6.04 times |  | penetrating activity compared with TAT (HeLa cells [1]): better penetrating activity than TAT(100 μM); cell penetrating activity compared with WT SEQ ID No.: 1 (HeLa cells [1]; concentration not given): increased cell penetrating activity; mean fluorescence intensity (MFI) relative to WT (HeLa cells [1]): 144.6 times
MIIYRDKKSH (mutant peptide based on human sequence; (1)..(10) TCTP-CPP#2) [SEQ ID No.: 21] |  |  | cell penetrating activity compared with WT SEQ ID No.: 1 (HeLa cells [1]; concentration not given): decreased twice
MIIYRDLI ((1)..(8) 1-8 amino acid residue of TCTP; listed as Homo sapiens) [SEQ ID No.: 3, Residues of TCTP(1-8)] |  |  | intracellular translocation, dependence on concentration (HeLa cells [2]): translocated not in 1-10 μM but in 50-100 μM; efficiency versus control peptide TAT at low concentration (HeLa cells [2]): lower efficiency than control peptide, TAT; cell penetrating activity / translocation efficiency in comparison with TAT (words) (HeLa cells [2]): excellent cell penetrating activity in comparison with conventional TAT; cell penetrating activity / translocation efficiency in comparison with TAT (words) (HeLa cells [2]; listed as TCTP (1-8)): superior ability than well-known PTD, TAT in their translocation efficiency; cell penetrating activity / translocation efficiency in comparison with TAT (words) (HeLa cells [2]; listed as TCTP(1-8)): more excellent penetrating activity than well-known TAT(47-58) peptide
MIIYRIAASHKK (mutant peptide based on human sequence; (1)..(12) TCTP-CPP#8) [SEQ ID No.: 27] | 1.73 times |  | penetrating activity compared with TAT (HeLa cells [1]): better penetrating activity than TAT(100 μM); cell penetrating activity compared with WT SEQ ID No.: 1 (HeLa cells [1]; concentration not given): increased cell penetrating activity; mean fluorescence intensity (MFI) relative to WT (HeLa cells [1]): 342.9 times
WIIFKIAASHKK (mutant peptide based on human sequence; (1)..(12) TCTP-CPP#25) [SEQ ID No.: 44] | 15.04 times |  | 
WIIFRAAASHKK (mutant peptide based on human sequence; (1)..(12) TCTP-CPP#18) [SEQ ID No.: 37] | 52.0 times | lower than SEQ ID No.: 34 at the concentration of 100 μM; also recorded: substitution for tryptophan did not increase translocation efficiency | 
WIIFRALISHKK (mutant peptide based on human sequence; (1)..(12) TCTP-CPP#19) [SEQ ID No.: 38] | 55.6 times | lower than SEQ ID No.: 34 at the concentration of 100 μM; also recorded: substitution for tryptophan did not increase translocation efficiency | 
WIIFRIAASHKK (mutant peptide based on human sequence; (1)..(12) TCTP-CPP#17) [SEQ ID No.: 36] | 18.4 times | stronger than SEQ ID No.: 40(WT-IX:Y) and SEQ ID No.: 42(WT-IX:T) only at 10 μM | 
